The values below come from ChEMBL document CHEMBL3272350, “Drugs derived from cannabinoids. 4. Effect of alkyl substitution in sulfur and carbocyclic analogs” (J Med Chem, 1976).

In data set [1] the test system is Canis familiaris. Nature of the data set: Antianxiety activity in dog assessed as decrease in reactivity and ataxia at 1 mg/kg, po administered as single dose measured every 15 mins for 24 hrs. On the set-up: dose 1 mg/kg. It is filed as functional, organism-based. As to conditions: Canis lupus familiaris.
Data set [2] is described as follows: Acute toxicity in po dosed Swiss-Webster mouse assessed as mortality measured for 7 days. In kind it is organism-based. The note with it: in vivo.
Data set [3] relates to Mus musculus. The data set is described as follows: Antidepressant activity in mouse assessed as potentiation of dopa-induced motor responses at 5 mg/kg, po pretreated with compound followed by dopa challenge for 4 hrs. The arrangement: dose 5 mg/kg. In kind it is functional, organism-based.
Data set [4] deals with Mus musculus. The data set is described as follows: Antianxiety activity in albino BALB/cJ mouse assessed as reduction of footshock-induced fighting behavior at 10 mg/kg, po after 90 mins relative to control. In kind it is functional. On the set-up: scale not given: the % may be the effect or the level left.
Data set [5] has as its system Mus musculus. Nature of the data set: Analgesic activity in po dosed mouse assessed as inhibition of acetic acid-induced writhing administered 30 mins prior to acetic acid challenge measured after 5 mins for 20 mins. In kind it is functional. On the technique in general: In writhing tests, fewer writhes than in controls are read as antinociception.
Data set [6] deals with Canis familiaris. The data set is described as follows: Antianxiety activity in dog assessed as decrease in reactivity and ataxia at 10 mg/kg, po administered as single dose measured every 15 mins for 24 hrs. As to conditions: Canis lupus familiaris. The arrangement: dose 10 mg/kg. It is filed as functional, organism-based.
In data set [7] the test system is Mus musculus. Nature of the data set: Anticonvulsant activity in mouse assessed as protection against audiogenic seizure at 10 mg/kg, po administered for 1 hr prior to testing relative to control. In kind it is functional.
Data set [8] has as its system Felis catus. Nature of the data set: Sedative-hypnotic activity in cat assessed as increase in total sleep time at 0.5 mg/kg, po administered with diet for 15 to 20 mins measured for 14 hrs. In kind it is functional.
Data set [9] concerns Mus musculus. Nature of the data set: Analgesic activity in po dosed mouse by hot-plate test. It is filed as functional.
In data set [10] the test system is Felis catus. Nature of the data set: Sedative-hypnotic activity in cat assessed as increase in total sleep time at 0.25 mg/kg, po administered with diet for 15 to 20 mins measured for 14 hrs. In kind it is functional.
Data set [11] has as its system Canis familiaris. The data set is described as follows: Antianxiety activity in dog assessed as decrease in reactivity and ataxia at 0.1 mg/kg, po administered as single dose measured every 15 mins for 24 hrs. The note with it: Canis lupus familiaris. In kind it is functional, organism-based. The arrangement: dose 0.1 mg/kg.
Data set [12] has as its system Felis catus. Nature of the data set: Sedative-hypnotic activity in cat assessed as increase in total sleep time at 0.1 mg/kg, po administered with diet for 15 to 20 mins measured for 14 hrs. It is filed as functional.
A further data set has as its system Rattus norvegicus. Nature of the data set: Analgesic activity in po dosed Sprague-Dawley rat assessed as increase in pain threshold measured at 15 to 90 mins by tail-flick test. In kind it is functional. In general terms: Hot-plate and tail-flick tests time the reaction to a heat stimulus.
Data set [13] has as its system Felis catus. Nature of the data set: Sedative-hypnotic activity in cat assessed as increase in total sleep time at 2 mg/kg, po administered with diet for 15 to 20 mins measured for 14 hrs. In kind it is functional.
The test system of data set [14] is Canis familiaris. The data set is described as follows: Antianxiety activity in dog assessed as decrease in reactivity at 1 mg/kg, po administered as single dose measured every 15 mins for 24 hrs. In kind it is functional, organism-based. The arrangement: dose 1 mg/kg. The note with it: Canis lupus familiaris.
The test system of data set [15] is Canis familiaris. The data set is described as follows: Antianxiety activity in dog assessed as decrease in reactivity at 0.1 mg/kg, po administered as single dose measured every 15 mins for 24 hrs. It is filed as functional, organism-based. The arrangement: dose 0.1 mg/kg. The note with it: Canis lupus familiaris.
Data set [16] concerns Felis catus. The data set is described as follows: Sedative-hypnotic activity in cat assessed as increase in total sleep time at 1 mg/kg, po administered with diet for 15 to 20 mins measured for 14 hrs. In kind it is functional.
Data set [17] concerns Mus musculus. The data set is described as follows: Anticonvulsant activity in mouse assessed as protection against audiogenic seizure at 30 mg/kg, po administered for 1 hr prior to testing relative to control. In kind it is functional.

Activity calls are given as the source filed them. Some results are limits rather than exact numbers.

Broadly, the LD50 is the dose expected to kill half of the subjects tested. For orientation: ED50 means the midpoint of the dose-response relation.

Consider `CCCCCC(C)C(C)c1cc(O)c2c(c1)OC(C)(C)C1=C2CC(C)C1` (stereo not given), for which the result in the data set on Canis familiaris [1], in the data set with Mus musculus [3] and with Canis familiaris [6] was Active. The median lethal dose (LD50) at 168 h in [2] was more than 500 mg/kg. Further, the Activity in the data set with Mus musculus [4] stood at 1%. For the same molecule, the median effective dose (ED50) with Mus musculus [5] came out at 22.6 mg/kg. The outcome in the data set with Mus musculus [7] was inactive.
As for `CCCCCC(C)C(C)c1cc(O)c2c(c1)OC(C)(C)C1=C2CC(C)(C)S1` (stereo not given), the LD50 at 168 h in data set [2] is more than 500 mg/kg. For the same molecule, the result with Mus musculus [3] and with Canis familiaris [6] was Active. The Activity with Mus musculus [4] and with Mus musculus [7] was 1% throughout. The ED50 with Mus musculus [5] was more than 40 mg/kg.
Regarding `CCCCCC(C)C(C)c1cc(O)c2c(c1)OC(C)(C)C1=C2CC(C)CC1` (stereo not given), the Time in the data set with Felis catus [8] is listed as 62 min. Further, the outcome with Canis familiaris [1], in the data set on Mus musculus [3] and with Canis familiaris [6] was Active. The LD50 at 168 h in data set [2] was more than 500 mg/kg. Also, the values for the ED50 in the data set with Mus musculus [9] and with Mus musculus [5] were 12.4 mg/kg and 19.6 mg/kg, respectively. In addition, the Activity with Mus musculus [4] and in the data set on Mus musculus [7] was 66% in each case.
In the case of `CCCCCC(C)C(C)c1cc(O)c2c(c1)OC(C)(C)C1=C2CC(C)S1` (stereo not given), the LD50 at 168 h in [2] is more than 500 mg/kg. The outcome in the data set with Mus musculus [3] and in the data set with Canis familiaris [6] was Active. The Activity in the data set on Mus musculus [4] is listed as 33%; in the data set with Mus musculus [7], 1%. In the data set with Mus musculus [5], the ED50 came out at 34 mg/kg.
Regarding `CCCCCC(C)C(C)c1cc(O)c2c(c1)OC(C)(C)C1=C2C(C)CC1` (stereo not given), the Time with Felis catus [8] is listed as 58 min. The result in the data set on Canis familiaris [1], with Mus musculus [3] and in the data set on Canis familiaris [6] was Active. Besides, the LD50 at 168 h in [2] is more than 500 mg/kg. In addition, the Activity with Mus musculus [4] and in the data set with Mus musculus [7] was 66% throughout. The median effective dose (ED50) in the data set on Mus musculus [5] turned out to be 13.3 mg/kg.
Turning to `CCCCCC(C)C(C)c1cc(O)c2c(c1)OC(C)(C)C1=C2C(C)CS1` (stereo not given), the outcome with Canis familiaris [1], in the data set on Canis familiaris [11] and in the data set on Mus musculus [3] was Active. In addition, the Time with Felis catus [10] is 50 min; in the data set on Felis catus [12], 21 min. For the same molecule, the median lethal dose (LD50) at 168 h in data set [2] is more than 500 mg/kg. In addition, the ED50 in the data set on Mus musculus [9] is 1.4 mg/kg; in the data set on Mus musculus [5], 4.7 mg/kg. The Activity in the data set on Mus musculus [4] and in the data set with Mus musculus [7] was 33% in each case.
Consider `CCCCCC(C)C(C)c1cc(O)c2c(c1)OC(C)(C)C1=C2CC(C)(C)C1` (stereo not given), for which the LD50 at 168 h in data set [2] is more than 500 mg/kg. Further, the outcome in the data set on Mus musculus [3] and in the data set with Canis familiaris [6] was Active. The Activity in the data set with Mus musculus [4] is 33%. Also, the 50% effective dose (ED50) with Mus musculus [5] and in the data set on Rattus norvegicus was more than 40 mg/kg in each case. Further, the result with Mus musculus [7] was inactive.
For the molecule `CCCCCC(C)C(C)c1cc(O)c2c(c1)OC(C)(C)C1=C2CCC1` (stereo not given), the Time with Felis catus [8] was determined as 59 min; with Felis catus [13] it was 65 min. Moreover, the LD50 at 168 h in data set [2] is more than 500 mg/kg. Also, the median effective dose (ED50) with Mus musculus [9] was determined as 45.1 mg/kg; in the data set with Mus musculus [5] it was 25.3 mg/kg. Moreover, the result in the data set with Mus musculus [3], with Canis familiaris [14] and in the data set with Canis familiaris [6] was Active. Further, the Activity is 33% in the data set with Mus musculus [4] and 1% in the data set on Mus musculus [7].
Turning to `CCCCCC(C)C(C)c1cc(O)c2c(c1)OC(C)(C)C1=C2CCS1` (stereo not given), the Time turned out to be 31 min in the data set with Felis catus [13] and 30 min in the data set with Felis catus [16]. Besides, the outcome with Canis familiaris [15], in the data set with Mus musculus [3] and in the data set on Canis familiaris [6] was Active. Besides, in data set [2], the LD50 at 168 h was more than 500 mg/kg. In addition, the Activity in the data set with Mus musculus [4] and in the data set with Mus musculus [7] was 33% each time.
Regarding `CCCCCC(C)C(C)c1cc(O)c2c(c1)OC(C)(C)C1=C2C(C)CCC1` (stereo not given), the Time in the data set on Felis catus [8] was found to be 54 min. Further, the result in the data set on Canis familiaris [1], with Mus musculus [3] and in the data set on Canis familiaris [6] was Active. In addition, in data set [2], the 50% lethal dose (LD50) at 168 h is more than 500 mg/kg. The results for the 50% effective dose (ED50) in the data set on Mus musculus [9] and in the data set with Mus musculus [5] were 25 mg/kg and 10.5 mg/kg, respectively. The Activity in the data set with Mus musculus [17] and in the data set with Mus musculus [4] was 33% throughout.
